For one series, the system named is Trichogramma. Kind of series: Chronic toxicity test on Trichogramma, egg card-dipping method. Particulars: for NOEC (smallest NOEC among the endpoint effects): Trichogramma, overall over egg yield, emergence rate, adult survival time. The text has this:
Trichogramma is one of the natural enemies that are most widely used and have dominant influence. As an important means to control insect pests, chemical pesticides can also cause toxic and side effects to natural enemies of the insect pests that will be killed by the chemical pesticides. […] In the test, Trichogramma was adopted as a test organism, dimethoate and imidacloprid were adopted as test chemicals, and endpoint effects were egg yield, emergence rate and adult survival time. 6 treatment concentrations (including 1 blank control and 5 test chemical concentrations, see Table 1 for details) were set for each test chemical group.
The egg card-dipping method was adopted. A 1.0 cm×2.0 cm card of rice moth eggs (approximately 100 eggs) was placed in each finger tube, then about 20 Trichogramma adults at 4 h to 6 h after emergence were introduced, and the Trichogramma adults were removed after they had parasitized the rice moth eggs for 24 h. 144 h later, the egg cards were dipped in test solutions with different concentrations separately for 5 s, then taken out and air dried, and put into finger tubes. The tubes were sealed with a black cloth, and then put in an incubator until the emergence of Trichogramma adults was completed. A 0.1% Triton X-100 aqueous solution was adopted as a blank control. 9 replicates were set for each treatment, and divided into three groups for the observation of 3 endpoint effects respectively, namely, with 3 replicates for each endpoint effect. A first group was used to investigate the egg yield; a second group was used to investigate the number of emerged adults, and the emergence rate was calculated (emergence rate=the number of emerged adults/the number of […]×100%); and a third group was used to investigate the adult survival time. If the number of emerged adults is less than 30 or the emerged adults have a low vitality and thus cannot be transferred to a new finger tube autonomously, the parasitism rate and survival time will not be investigated.

A further series has as its system quail. Kind of series: Chronic toxicity (growth and reproduction) test for quails fed poisonous feedstuff. It is filed as in vivo. Particulars: for Egg production: average daily, day 40 to 48; for Stillbirth rate: eggs of day 45 to 50; for NOEC (smallest NOEC among the endpoint effects): quail, overall over body weight, egg production, stillbirth rate. The text has this: In the test, the quail was adopted as a test organism, acetamiprid and MCPA were adopted as test chemicals, and the end effects were body weight, average daily egg production and stillbirth rate.
Healthy and lively quails, which were 30-day old and weighed 90 g to 110 g, were selected for the test. The male and female were raised separately, with 10 quails for each cage. The quails were fed with a poisonous feedstuff twice a day at the same feeding amount for a long time, with an average feeding amount of 20 g per day for each quail. Since the feeding started, the body weight was recorded for quails in each treatment; the number of eggs produced on day 40 to 48 was counted; the eggs produced on day 45 to 50 were collected and hatched in a poultry-specific hatcher separately for each treatment; and the stillbirth rate was calculated. In this example, the endpoint effect data were body weight, egg production and stillbirth rate.

Where [1] appears, read: mass concentration 1.25 mg/Lfeedstuff.
Where [2] appears, read: mass concentration 6.25 mg/Lfeedstuff.
[3] abbreviates: mass concentration 25 mg/Lfeedstuff.
Setting [4] is: mass concentration 125 mg/Lfeedstuff.
[5] abbreviates: mass concentration 500 mg/Lfeedstuff.
The mark [6] stands for this setting: mass concentration 0.5 mg/Lfeedstuff.
[7] abbreviates: mass concentration 2 mg/Lfeedstuff.
Setting [8] is: mass concentration 7 mg/Lfeedstuff.
Setting [9] is: mass concentration 30 mg/Lfeedstuff.
Where [10] appears, read: mass concentration 130 mg/Lfeedstuff.

As to `O=[N+]([O-])NC1=NCCN1Cc1ccc(Cl)nc1` [Imidacloprid, imidacloprid], the “Validation: emergence rate compared with blank control” value in the series with Trichogramma (35 mg/L) is listed as “no significant difference”. In the series on Trichogramma, the “NOEC (smallest NOEC among the endpoint effects)” value is 40 mg/L, the “NOEC for chronic toxicity in Trichogramma based on the adult survival time” value is 160 mg/L, the “NOEC for chronic toxicity in Trichogramma based on the egg yield” value is on record as 80 mg/L and the “NOEC for chronic toxicity in Trichogramma based on the emergence rate” value is given as 40 mg/L. In the series on Trichogramma (mass concentration 10 mg/L), this compound came in with an Adult survival time of 3.60 a d, an Egg yield of 37.0 a eggs and an Emergence rate of 90.57 a %. In the series on Trichogramma (mass concentration 20 mg/L), the Adult survival time turned out to be 3.23 a d, the Egg yield came out at 37.3 a eggs and the Emergence rate amounted to 87.81 a %. Besides, in the series on Trichogramma (mass concentration 40 mg/L), the Adult survival time is given as 3.50 a d, the Egg yield is reported as 36.0 a eggs and the Emergence rate is on record as 78.19 a %. Also, in the series on Trichogramma (mass concentration 80 mg/L), the Adult survival time was determined as 3.21 a d, the Egg yield stood at 34.2 a eggs and the Emergence rate is listed as 56.12 b %. In the series on Trichogramma (mass concentration 160 mg/L), the Adult survival time is on record as 3.12 a d, the Egg yield is listed as 28.5 b eggs and the Emergence rate was found to be 27.65 c %.
For the compound `Cc1cc(Cl)ccc1OCC(=O)O` [MCPA], in the series with quail (20 mg/L), the “Validation: body weight compared with blank control” value was “no significant difference”. Moreover, in the series with quail, the “NOEC for chronic toxicity in quails based on the body weight” value is listed as 25 mg/kgfeedstuff, the “NOEC for chronic toxicity in quails based on the egg production” value was determined as 500 mg/kgfeedstuff, the “NOEC for chronic toxicity in quails based on the stillbirth rate” value came to 25 mg/kgfeedstuff and the “NOEC (smallest NOEC among the endpoint effects)” value was 25 mg/kgfeedstuff. In the series on quail (setting [1]), the Body weight came out at 148.5 ab g, the Egg production is on record as 0.97 a eggs and the Stillbirth rate was 22.4 a %. Besides, in the series with quail (setting [2]), the Body weight came out at 155.3 ab g, the Egg production amounted to 0.96 a eggs and the Stillbirth rate is on record as 23.2 ab %. In the series on quail (setting [3]), this compound yielded a Body weight of 150.7 ab g, an Egg production of 0.96 a eggs and a Stillbirth rate of 21.2 a %. Moreover, in the series with quail (setting [4]), the Body weight came out at 145.2 b g, the Egg production is reported as 0.95 a eggs and the Stillbirth rate was determined as 26.4 b %. In the series on quail (setting [5]), the Body weight turned out to be 159.5 a g, the Egg production amounted to 0.94 a eggs and the Stillbirth rate stood at 37.3 b %.
For the compound `C/C(=N\C#N)N(C)Cc1ccc(Cl)nc1` [Acetamiprid, acetamiprid], in the series with quail (125 mg/L), the “Validation: body weight compared with blank control” value is listed as “no significant difference”, the “Validation: egg production compared with blank control” value is reported as “no significant difference” and the “Validation: stillbirth rate compared with blank control” value is recorded as “no significant difference”. For the same compound, in the series with quail, the “NOEC for chronic toxicity in quails based on the body weight” value is listed as 130 mg/kgfeedstuff, the “NOEC for chronic toxicity in quails based on the egg production” value is 130 mg/kgfeedstuff, the “NOEC for chronic toxicity in quails based on the stillbirth rate” value is 130 mg/kgfeedstuff and the “NOEC (smallest NOEC among the endpoint effects)” value was found to be 130 mg/kgfeedstuff. Further, in the series on quail (setting [6]), the Body weight stood at 150.9 a g, the Egg production came out at 0.87 a eggs and the Stillbirth rate was determined as 23.4 a %. For the same compound, in the series with quail (setting [7]), the Body weight was 156.7 a g, the Egg production was determined as 0.86 a eggs and the Stillbirth rate is 16.7 a %. In the series on quail (setting [8]), the Body weight turned out to be 153.6 a g, the Egg production worked out at 0.87 a eggs and the Stillbirth rate stood at 25.7 a %. In addition, in the series with quail (setting [9]), the Body weight is reported as 151.9 a g, the Egg production came to 0.89 a eggs and the Stillbirth rate worked out at 26.4 a %. In the series on quail (setting [10]), this compound gave a Body weight of 145.4 a g, an Egg production of 0.86 a eggs and a Stillbirth rate of 21.9 a %.
As for `CNC(=O)CSP(=S)(OC)OC` [Dimethoate, dimethoate], in the series on Trichogramma (90 mg/L), the “Validation: egg yield compared with blank control” value is “no significant difference”. The “NOEC (smallest NOEC among the endpoint effects)” value in the series with Trichogramma was 100 mg/L. Besides, the “NOEC for chronic toxicity in Trichogramma based on the adult survival time” value with Trichogramma worked out at 400 mg/L. For the same compound, the “NOEC for chronic toxicity in Trichogramma based on the egg yield” value with Trichogramma is 100 mg/L. For the same compound, the “NOEC for chronic toxicity in Trichogramma based on the emergence rate” value in the series with Trichogramma is on record as 200 mg/L. Further, the Adult survival time with Trichogramma (mass concentration 25 mg/L) stood at 3.15 a d; in the series with Trichogramma (mass concentration 50 mg/L) it was 3.27 a d; with Trichogramma (mass concentration 100 mg/L), 3.30 a d; with Trichogramma (mass concentration 200 mg/L), 2.67 a d; with Trichogramma (mass concentration 400 mg/L), 2.32 a d. Further, the Egg yield is 36.1 a eggs in the series on Trichogramma (mass concentration 25 mg/L); 34.2 a eggs in the series on Trichogramma (mass concentration 50 mg/L); 31.6 a eggs in the series with Trichogramma (mass concentration 100 mg/L); 27.2 b eggs with Trichogramma (mass concentration 200 mg/L); 20.7 b eggs in the series on Trichogramma (mass concentration 400 mg/L).

Source of the values: patent US20210330818A1, “METHOD FOR ANALYZING NON-OBSERVED EFFECT CONCENTRATION (NOEC) OF CHEMICAL ON ORGANISM” (priority 2020, published 2021).
